Article PMC8819633 (Journal of medicinal chemistry, 2021)

Legend:
[1] = system: P-PRAS40 (T246) and P-S6 (S240/244); assay: Western blot of downstream signaling inhibition in BT474 cells; type: cell-based, human; conditions: for inhibition of downstream signaling, P-PRAS40 and P-S6: compared with GDC-0068 (1 μM); for kinetics of downstream signaling inhibition: vs GDC-0068
[2] = system: total AKT (T-AKT) and phosphorylated AKT (P-AKT (S473)); assay: Western blot of AKT degradation in BT474 cells; type: cell-based, human; conditions: for T-AKT and P-AKT protein degradation (western blot): 24 h, 1, 5 and 10 μM (12-13: 1, 3 and 10 μM); for hook effect in AKT degradation: higher concentrations (up to 10 μM); for time course of T-AKT and P-AKT degradation: indicated times; for extent of T-AKT degradation in concentration-response: indicated concentrations; for hook effect in concentration-response: concentrations up to 10 μM; for P-AKT (S473) protein level (western blot): GDC-0068 at 1 μM; for T-AKT protein level (western blot): controls at 1 μM
MDA-MB-468 cells [3] = assay: Apoptosis assay; type: cell-based, human; conditions: MDA-MB-468 cells (Figure S5)
T-AKT and P-AKT = assay: Competition; type: cell-based, human; conditions: BT474, then degrader 22 h; for effect of GDC-0068 pretreatment on degrader-induced AKT degradation: 2 h pretreatment with GDC-0068 (1 μM); for effect of MG132 pretreatment on degrader-induced AKT degradation: 2 h pretreatment with MG132 (10 μM); for effect of MLN4924 pretreatment on degrader-induced AKT degradation: 2 h pretreatment with MLN4924 (1 μM)
[4] = 50 mg/kg; for time of Cmax: male Swiss albino mice, single IP injection
MDA-MB-468 cells [5] = assay: Cell proliferation assay; type: cell-based, human; conditions: 5 days
PC3 cells = assay: Cell proliferation assay; type: cell-based, human; conditions: 5 days
[6] = type: in vivo; conditions: mice, single IP injection, 50 mg/kg
T-AKT and P-AKT (S473) = assay: Western blot of AKT degradation in PC3 cells; type: cell-based, human; conditions: for T-AKT and P-AKT degradation (western blot): PC3 cells, 1 μM, 24 h
[7] = system: P-PRAS40 (T246) and P-S6 (S240/244); assay: Western blot of downstream signaling inhibition in PC3 cells; type: cell-based, human; conditions: 1 μM, 24 h, vs GSK690693

Cc1ncsc1-c1ccc(CNC(=O)[C@@H]2C[C@@H](O)CN2C(=O)[C@@H](NC(=O)CCCCCCCCCCNC(=O)CCNC[C@@H](C(=O)N2CCN(c3ncnc4c3[C@H](C)C[C@H]4O)CC2)c2ccc(Cl)cc2)C(C)(C)C)cc1 [Compound 11, (2S,4R)-1-((S)-2-(11-(3-(((S)-2-(4-Chlorophenyl)-3-(4-((5R,7R)-7-hydroxy-5-methyl-6,7-dihydro-5H-cyclopenta[d]pyrimidin-4-yl)-piperazin-1-yl)-3-oxopropyl)amino)propanamido)-undecanamido)-3,3-dimethylbutanoyl)-4-hydroxy-N-(4-(4-methyl-thiazol-5-yl)benzyl)pyrrolidine-2-carboxamide]
inhibition of downstream signaling, P-PRAS40 and P-S6 ([1]; 24 h): less effective than the parent inhibitor GDC-0068 | T-AKT and P-AKT protein degradation (western blot) [2]: near-complete degradation of T-AKT and P-AKT at 1 μM | hook effect in AKT degradation ([2]; 24 h): at 5 and 10 μM, a ″hook effect″ was observed

Cc1ncsc1-c1ccc([C@H](C)NC(=O)[C@@H]2C[C@@H](O)CN2C(=O)[C@@H](NC(=O)CCCCCCCCCCNC(=O)CCNC[C@@H](C(=O)N2CCN(c3ncnc4c3[C@H](C)C[C@H]4O)CC2)c2ccc(Cl)cc2)C(C)(C)C)cc1 [Compound 12, (2S,4R)-1-((S)-2-(11-(3-(((S)-2-(4-Chlorophenyl)-3-(4-((5R,7R)-7-hydroxy-5-methyl-6,7-dihydro-5H-cyclopenta[d]pyrimidin-4-yl)-piperazin-1-yl)-3-oxopropyl)amino)propanamido)-undecanamido)-3,3-dimethylbutanoyl)-4-hydroxy-N-((S)-1-(4-(4-methylthiazol-5-yl)phenyl)ethyl)pyrrolidine-2-carboxamide]
inhibition of downstream signaling, P-PRAS40 and P-S6 ([1]; 24 h): more profound inhibition of P-PRAS40 and P-S6 than 11 | T-AKT and P-AKT protein degradation (western blot) [2]: remarkable effects on degrading T-AKT and P-AKT

Cc1ncsc1-c1ccc([C@H](C)NC(=O)[C@@H]2C[C@@H](O)CN2C(=O)[C@@H](NC(=O)CCCCCCCCCCC(=O)NCCNC[C@@H](C(=O)N2CCN(c3ncnc4c3[C@H](C)C[C@H]4O)CC2)c2ccc(Cl)cc2)C(C)(C)C)cc1 [Compound 13, N^1-(2-(((S)-2-(4-Chlorophenyl)-3-(4-((5R,7R)-7-hydroxy-5-methyl-6,7-dihydro-5H-cyclopenta[d]pyrimidin-4-yl)piperazin-1-yl)-3-oxopropyl)amino)ethyl)-N^12-((S)-1-((2S,4R)-4-hydroxy-2-(((S)-1-(4-(4-methylthiazol-5-yl)phenyl)ethyl)carbamoyl)pyrrolidin-1-yl)-3,3-dimethyl-1-oxobutan-2-yl)dodecanediamide]
apoptosis induced (MDA-MB-468 cells [3]): ≤ 3% | kinetics of downstream signaling inhibition ([1]; 1 μM): not as rapid as that induced by GDC-0068 | inhibition of downstream signaling, P-PRAS40 and P-S6 ([1]; 24 h): more profound inhibition of P-PRAS40 and P-S6 than 11 | effect of GDC-0068 pretreatment on degrader-induced AKT degradation (T-AKT and P-AKT): blocked the AKT degradation induced by 13 | effect of MG132 pretreatment on degrader-induced AKT degradation (T-AKT and P-AKT): completely prevented 13-mediated degradation of T-AKT and P-AKT and inhibition of P-PRAS40 | effect of MLN4924 pretreatment on degrader-induced AKT degradation (T-AKT and P-AKT): completely prevented 13-mediated degradation of T-AKT and P-AKT and inhibition of P-PRAS40 | time of Cmax [4]: 2 h | plasma concentrations over 8 h ([4]; mouse, in vivo, ip): above 3 μM | duration of T-AKT and P-AKT degradation ([2]; 1 μM): at least 24 h | time course of T-AKT and P-AKT degradation ([2]; 1 μM): Obvious degradation occurred at 4 h, and near-complete degradation was achieved at 8 h | T-AKT and P-AKT protein degradation (western blot) [2]: remarkable effects on degrading T-AKT and P-AKT | hook effect in AKT degradation ([2]; 24 h): less ″hook effect″ than 12 | extent of T-AKT degradation in concentration-response ([2]; 24 h): near-complete depletion of T-AKT at 1 μM | hook effect in concentration-response [2]: No ″hook effect″ was observed | growth inhibition (MDA-MB-468 cells [5]): comparable potencies to GDC-0068 and INY-03–041 | growth inhibition (PC3 cells): comparable potencies to GDC-0068 and INY-03–041 | tolerability [6]: well tolerated | AKT degradation, concentration-response (T-AKT and P-AKT (S473)): effectively induced AKT degradation in a concentration-dependent manner

C[C@@H]1C[C@@H](O)c2ncnc(N3CCN(C(=O)[C@H](CNCCC(=O)NCCCCCCCCNc4cccc5c4C(=O)N(C4CCC(=O)NC4=O)C5=O)c4ccc(Cl)cc4)CC3)c21 (stereo partly shown) [Compound 25]
apoptosis induced (MDA-MB-468 cells [3]): ≤ 3% | kinetics of downstream signaling inhibition ([1]; 1 μM): not as rapid as that induced by GDC-0068 | inhibition of downstream signaling, P-PRAS40 and P-S6 ([1]; 24 h): most effective in inhibiting the downstream signaling | effect of GDC-0068 pretreatment on degrader-induced AKT degradation (T-AKT and P-AKT): rescued 25-induced AKT degradation | effect of MG132 pretreatment on degrader-induced AKT degradation (T-AKT and P-AKT): rescued 25-induced AKT degradation | effect of MLN4924 pretreatment on degrader-induced AKT degradation (T-AKT and P-AKT): rescued 25-induced AKT degradation | time of Cmax [4]: 2 h | duration of T-AKT and P-AKT degradation ([2]; 1 μM): at least 24 h | T-AKT and P-AKT degradation ([2]; 1 μM, 24 h): > 95% | time course of T-AKT and P-AKT degradation ([2]; 1 μM): Significant P-AKT and T-AKT degradation occurred as early as 4 and 8 h, respectively | T-AKT and P-AKT protein degradation (western blot) [2]: highly effective in reducing T-AKT and P-AKT protein levels | hook effect in AKT degradation ([2]; 24 h): without a ″hook effect″ | extent of T-AKT degradation in concentration-response ([2]; 24 h): complete degradation of T-AKT at 300 nM | hook effect in concentration-response [2]: No ″hook effect″ was observed | growth inhibition (MDA-MB-468 cells [5]): comparable potencies to GDC-0068 and INY-03–041 | growth inhibition (PC3 cells): comparable potencies to GDC-0068 and INY-03–041 | tolerability [6]: well tolerated | AKT degradation, concentration-response (T-AKT and P-AKT (S473)): effectively induced AKT degradation in a concentration-dependent manner

C[C@@H]1C[C@@H](O)c2ncnc(N3CCN(C(=O)[C@H](CNCCNC(=O)CCCCCCCCNc4cccc5c4C(=O)N(C4CCC(=O)NC4=O)C5=O)c4ccc(Cl)cc4)CC3)c21 (stereo partly drawn) [Compound 26, N-(2-(((S)-2-(4-chlorophenyl)-3-(4-((5R,7R)-7-hydroxy-5-methyl-6,7-dihydro-5H-cyclopenta[d]pyrimidin-4-yl)piperazin-1-yl)-3-oxopropyl)amino)ethyl)-9-((2-(2,6-dioxopiperidin-3-yl)-1,3-dioxoisoindolin-4-yl)amino)nonanamide]
inhibition of P-PRAS40 ([1]; 1 μM, 24 h): as effectively as GDC-0068 | P-AKT (S473) protein level (western blot) ([2]; 24 h): did not reduce the P-AKT level | T-AKT protein level (western blot) ([2]; 24 h): partially degraded T-AKT

CCn1c(-c2nonc2N)nc2c(C#CC(C)(C)O)ncc(OCCCNCCCC(=O)NCCCCCCCCCCC(=O)N[C@H](C(=O)N3C[C@H](O)C[C@H]3C(=O)NCc3ccc(-c4scnc4C)cc3)C(C)(C)C)c21 [Compound 48, (2S,4R)-1-((S)-2-(11-(4-((3-((2-(4-Amino-1,2,5-oxadiazol-3-yl)-1-ethyl-4-(3-hydroxy-3-methylbut-1-yn-1-yl)-1H-imidazo[4,5-c]-pyridin-7-yl)oxy)propyl)amino)butanamido)undecanamido)-3,3-dimethylbutanoyl)-4-hydroxy-N-(4-(4-methylthiazol-5-yl)benzyl)-pyrrolidine-2-carboxamide]
inhibition of P-PRAS40 [7]: less effective than GSK690693 in inhibiting P-PRAS40 | T-AKT and P-AKT degradation (western blot) (T-AKT and P-AKT (S473)): the most effective in degrading T-AKT and P-AKT

CCn1c(-c2nonc2N)nc2c(C#CC(C)(C)O)ncc(OCCCNCCCC(=O)NCCCCCCCCNc3cccc4c3C(=O)N(C3CCC(=O)NC3=O)C4=O)c21 (stereo not shown) [Compound 60, 4-((3-((2-(4-Amino-1,2,5-oxadiazol-3-yl)-1-ethyl-4-(3-hydroxy-3-methylbut-1-yn-1-yl)-1H-imidazo[4,5-c]pyridin-7-yl)oxy)propyl)-amino)-N-(8-((2-(2,6-dioxopiperidin-3-yl)-1,3-dioxoisoindolin-4-yl)-amino)octyl)butanamide]
inhibition of P-PRAS40 [7]: less effective than GSK690693 in inhibiting P-PRAS40 | T-AKT and P-AKT degradation (western blot) (T-AKT and P-AKT (S473)): the most effective in degrading T-AKT and P-AKT

CC(C)NC[C@@H](C(=O)N1CCN(c2ncnc3c2[C@H](C)C[C@H]3O)CC1)c1ccc(Cl)cc1 [GDC-0068, reference compound]
inhibition of downstream signaling, P-PRAS40 and P-S6 ([1]; 24 h): effectively inhibited downstream signaling | time course of T-AKT and P-AKT degradation ([2]; 1 μM): no effect on the T-AKT protein level and increased the P-AKT protein level | P-AKT (S473) protein level (western blot) ([2]; 24 h): AKT hyperphosphorylation | T-AKT protein level (western blot) ([2]; 24 h): no detectable effect on the T-AKT protein level
